Reference: patent publication US11464749B2, “Bismuth-thiol compositions and methods of use” (Microbion Corporation, priority 2018, dated 2022)

What was measured:
Experiment in all cases: Broth microdilution antifungal susceptibility (Example 13)
Format in all cases: cell-based
[1] = system: A. niger; settings: A. niger ATCC 29508; comparators, read time not given
[2] = system: Candida glabrata
[3] = system: A. terreus; settings: A. terreus MMX 8229; comparators, read time not given
[4] = system: Candida auris
[5] = system: A. flavus; settings: comparators, read time not given
[6] = system: Candida krusei
[7] = system: A. fumigatus; settings: comparators, read time not given
[8] = system: Candida albicans; settings: 24 hr
[9] = isolate ATCC 90030 (Susceptible)
[10] = isolate ATCC MYA-2950 (Susceptible)
[11] = isolate MMX 7103 (CASP-R, MICA-R)
[12] = isolate MMX 7285 (CASP-R, MICA-R)
[13] = isolate MMX 7307 (CASP-R, MICA-R, FLU-R)
[14] = isolate MMX 9863 (FLU-R, VORI-R)
[15] = isolate MMX 9864 (FLU-R, VORI-R)
[16] = isolate MMX 9865 (FLU-R, VORI-R)
[17] = isolate MMX 9866 (FLU-R, VORI-R)
[18] = isolate MMX 9867 (FLU-R, VORI-R)
[19] = isolate MMX 9868 (FLU-R, VORI-R)
[20] = isolate MMX 9869 (FLU-R, VORI-R)
[21] = isolate MMX 9870 (FLU-R, VORI-R)
[22] = isolate ATCC 14243 (Susceptible)
[23] = isolate ATCC 96685 (Susceptible)
[24] = isolate MMX 9878 (MICA-I, VORI-I)
[25] = isolate ATCC 90028 (Susceptible)
[26] = isolate ATCC MYA-2732 (FLU-R, VORI-I)
[27] = isolate MMX 7067 (FLU-R, VORI-R)
[28] = isolate MMX 7424 (CASP-R, MICA-R)
[29] = isolate MMX 7445 (FLU-R, VORI-R)

C[C@@H](c1ncncc1F)[C@](O)(Cn1cncn1)c1ccc(F)cc1F [VORI]
>8 µg/mL: MIC2 (50% inhibition) [4, 14] | MIC2 (50% inhibition) [4, 19] | MIC2 (50% inhibition) [8, 27] | MIC2 (50% inhibition) [8, 29]
2 µg/mL: MIC2 (50% inhibition) ([2]; isolate MMX 7093 (FLU-R)) | MIC2 (50% inhibition) ([2]; isolate MMX 7101 (FLU-R)) | MIC2 (50% inhibition) [4, 15] | MIC2 (50% inhibition) [4, 20] | MIC0 ([5]; A. flavus ATCC 204304) | MIC0 ([7]; A. fumigatus MMX 5939)
0.03 µg/mL: MIC2 (50% inhibition) ([2]; isolate MMX 7087 (Susceptible)) | MIC2 (50% inhibition) ([4]; isolate MMX 9862 (Susceptible))
0.06 µg/mL: MIC2 (50% inhibition) ([2]; isolate MMX 7111 (Susceptible)) | MIC2 (50% inhibition) ([2]; isolate MMX 7549 (Susceptible)) | MIC2 (50% inhibition) [6, 22]
0.12 µg/mL: MIC2 (50% inhibition) [2, 9] | MIC2 (50% inhibition) [2, 10] | MIC2 (50% inhibition) [2, 11] | MIC2 (50% inhibition) ([6]; isolate ATCC 6258 (MICA-I)) | MIC2 (50% inhibition) ([6]; isolate MMX 7128 (Susceptible)) | MIC2 (50% inhibition) ([6]; isolate MMX 7141 (Susceptible)) | MIC2 (50% inhibition) ([8]; isolate MMX 7437 (FLU-I))
8 µg/mL: MIC2 (50% inhibition) [4, 16] | MIC2 (50% inhibition) [4, 17] | MIC2 (50% inhibition) [4, 18]
4 µg/mL: MIC2 (50% inhibition) [2, 13] | MIC2 (50% inhibition) [4, 21]
0.5 µg/mL: MIC0 [1] | MIC0 ([5]; A. flavus MMX 7935) | MIC2 (50% inhibition) [6, 23] | MIC0 ([7]; A. fumigatus ATCC 204305) | MIC0 ([7]; A. fumigatus ATCC MYA-3626) | MIC2 (50% inhibition) [8, 26]
1 µg/mL: MIC2 (50% inhibition) [2, 12] | MIC2 (50% inhibition) ([4]; isolate MMX 9871 (Susceptible)) | MIC0 ([5]; A. flavus ATCC 22546) | MIC2 (50% inhibition) [6, 24]
0.25 µg/mL: MIC0 [3] | MIC2 (50% inhibition) ([6]; isolate MMX 7125 (Susceptible)) | MIC2 (50% inhibition) ([6]; isolate MMX 7153 (MICA-R)) | MIC2 (50% inhibition) ([6]; isolate MMX 7155 (Susceptible)) | MIC2 (50% inhibition) ([6]; isolate MMX 7563 (Susceptible)) | MIC0 ([7]; A. fumigatus MMX 5934) | MIC0 ([7]; A. fumigatus MMX 5938)
≤0.008 µg/mL: MIC2 (50% inhibition) [8, 25] | MIC2 (50% inhibition) ([8]; isolate ATCC 204276 (MICA-R)) | MIC2 (50% inhibition) ([8]; isolate MMX 7053 (Susceptible)) | MIC2 (50% inhibition) ([8]; isolate MMX 7403 (Susceptible)) | MIC2 (50% inhibition) [8, 28] | MIC2 (50% inhibition) ([8]; isolate MMX 7430 (Susceptible))

C[C@@H]1[C@H](O)[C@@H](C)/C=C/C=C/C=C/C=C/C=C/C=C/C=C/[C@H](O[C@@H]2O[C@H](C)[C@@H](O)[C@H](N)[C@@H]2O)C[C@@H]2O[C@](O)(C[C@@H](O)C[C@@H](O)[C@H](O)CC[C@@H](O)C[C@@H](O)CC(=O)O[C@H]1C)C[C@H](O)[C@H]2C(=O)O [AMP B]
0.5 µg/mL: MIC0 (complete inhibition) [4, 17] | MIC0 (complete inhibition) [4, 18] | MIC0 (complete inhibition) ([6]; isolate ATCC 6258 (MICA-I)) | MIC0 (complete inhibition) [6, 23] | MIC0 (complete inhibition) ([6]; isolate MMX 7125 (Susceptible)) | MIC0 (complete inhibition) ([6]; isolate MMX 7128 (Susceptible)) | MIC0 (complete inhibition) ([6]; isolate MMX 7153 (MICA-R)) | MIC0 (complete inhibition) ([6]; isolate MMX 7563 (Susceptible)) | MIC0 (complete inhibition) [6, 24]
0.12 µg/mL: MIC0 (complete inhibition) [2, 10] | MIC0 (complete inhibition) ([2]; isolate MMX 7087 (Susceptible)) | MIC0 (complete inhibition) [4, 14] | MIC0 (complete inhibition) ([8]; isolate MMX 7053 (Susceptible)) | MIC0 (complete inhibition) [8, 29]
0.25 µg/mL: MIC0 [1] | MIC0 (complete inhibition) [2, 9] | MIC0 (complete inhibition) ([2]; isolate MMX 7093 (FLU-R)) | MIC0 (complete inhibition) ([2]; isolate MMX 7101 (FLU-R)) | MIC0 (complete inhibition) [2, 11] | MIC0 (complete inhibition) ([2]; isolate MMX 7111 (Susceptible)) | MIC0 (complete inhibition) [2, 12] | MIC0 (complete inhibition) [2, 13] | MIC0 (complete inhibition) ([2]; isolate MMX 7549 (Susceptible)) | MIC0 [3] | MIC0 (complete inhibition) ([4]; isolate MMX 9862 (Susceptible)) | MIC0 (complete inhibition) [4, 15] | MIC0 (complete inhibition) [4, 16] | MIC0 (complete inhibition) [4, 19] | MIC0 (complete inhibition) [6, 22] | MIC0 (complete inhibition) ([6]; isolate MMX 7141 (Susceptible)) | MIC0 (complete inhibition) ([6]; isolate MMX 7155 (Susceptible)) | MIC0 (complete inhibition) [8, 25] | MIC0 (complete inhibition) ([8]; isolate ATCC 204276 (MICA-R)) | MIC0 (complete inhibition) [8, 26] | MIC0 (complete inhibition) [8, 27] | MIC0 (complete inhibition) ([8]; isolate MMX 7403 (Susceptible)) | MIC0 (complete inhibition) [8, 28] | MIC0 (complete inhibition) ([8]; isolate MMX 7430 (Susceptible)) | MIC0 (complete inhibition) ([8]; isolate MMX 7437 (FLU-I))
1 µg/mL: MIC0 (complete inhibition) [4, 20] | MIC0 (complete inhibition) [4, 21] | MIC0 (complete inhibition) ([4]; isolate MMX 9871 (Susceptible)) | MIC0 ([5]; A. flavus ATCC 22546) | MIC0 ([5]; A. flavus ATCC 204304) | MIC0 ([5]; A. flavus MMX 7935) | MIC0 ([7]; A. fumigatus ATCC 204305) | MIC0 ([7]; A. fumigatus ATCC MYA-3626) | MIC0 ([7]; A. fumigatus MMX 5934) | MIC0 ([7]; A. fumigatus MMX 5938) | MIC0 ([7]; A. fumigatus MMX 5939)
